Columns and labels:
[1] = tested on: HEK293 cells transfected with TRPM8; test: soft agar assay, colony formation rate; type: cell-based; conditions: TRPM8 transfected HEK293 cells vs wild type and empty vector cells; menthol 10, 100, and 100 μM in medium, substituted every fifth day; after three weeks
Procedure: HEK293 cells were not transfected, transfected with TRPM8 or transfected with an empty vector. The cells were used in a soft agar assay (see reference Shappel et al., Cancer Research 61:497-503 (2001)). The cells highly individually plated out and immobilized in agar are caused to grow three-dimensionally and independently of the substrate in this way. The colony formation rate permits conclusions regarding the tumorigenicity of the cells to be drawn. 1000 cells were plated out in the 6-hole plate in 2 ml of medium containing soft agar and coated with 1 ml of medium (DMEM with 10% FCS, 2mM glutamine) after the agar congealed. Menthol dissolved in ethanol was added to the medium in end concentrations of 10, 100, and 100 μM and substituted every fifth day. The solvent alone was added as a control. After three weeks the number of colonies formed was determined under the microscope.

HEK293 TRPM8 cells = test: tumor growth in hairless mice; type: in vivo; conditions: male hairless mice, HEK293 TRPM8 cells subcutaneous or xenotransplanted in the prostate; 20 mg/kg daily intraperitoneal in DMSO, three weeks; vs untreated control animals
Procedure: Human TRPM8 cDNA was subcloned in the expression vector pcDNA3.1 and subsequently stably transfected in HEK293 cells. […] To study the effect of menthol or icilin on tumor growth in vivo 2 million HEK293 TRPM8 cells were subcutaneously injected or xenotransplanted in the prostate in male hairless mice. The test groups in each case consisted of 10 animals. The control groups were untreated or treated only with DMSO. The animals were treated by daily intraperitoneal administration of 20 mg/kg body weight icilin or menthol, dissolved in DMSO, over a time interval of three weeks. The growth of the subcutaneously injected cells was measured twice weekly over the entire test duration. Immediately after completion of the trials the “xenotransplants” were resected, weighed and preserved.

SMILES	number of colonies formed (colony formation rate) [1]	tumor growth (HEK293 TRPM8 cells)
CC1CCC(C(C)C)C(O)C1 (stereo not drawn) [menthol]	distincly less colony formation	distinctly less tumor growth
O=C1NC(c2cccc([N+](=O)[O-])c2)=CCN1c1ccccc1O [icilin]		distinctly less tumor growth

Reference: patent US20070010574A1, “Use of a trpm8-activating substance for the treatment of tumours” (priority 2002, published 2007)
